Data taken from patent EP4772509A1, “KINESIN KIF18A INHIBITOR, AND APPLICATION THEREOF” (Shanghai Apeiron Therapeutics Company Limited, priority 2023, dated 2025).
Read-outs that look alike come from different tables or passages of the source.

How the values were obtained:
[1] = target: T1, Human KIF18A (amino acid sequence 1-417) (Homo sapiens, UniProt Q8NI77); assay: Enzymatic activity test (ADP-Glo, microtubule-stimulated ATPase); format: biochemical; conditions: 60 µg/mL microtubules, 25 µM ATP, 2.5 nM KIF18A protein, 120 min at ambient temperature, chemiluminescence
T1 construct: purchased Viva Biotech (Shanghai) Ltd
T1 sequence (Q8NI77 1-417): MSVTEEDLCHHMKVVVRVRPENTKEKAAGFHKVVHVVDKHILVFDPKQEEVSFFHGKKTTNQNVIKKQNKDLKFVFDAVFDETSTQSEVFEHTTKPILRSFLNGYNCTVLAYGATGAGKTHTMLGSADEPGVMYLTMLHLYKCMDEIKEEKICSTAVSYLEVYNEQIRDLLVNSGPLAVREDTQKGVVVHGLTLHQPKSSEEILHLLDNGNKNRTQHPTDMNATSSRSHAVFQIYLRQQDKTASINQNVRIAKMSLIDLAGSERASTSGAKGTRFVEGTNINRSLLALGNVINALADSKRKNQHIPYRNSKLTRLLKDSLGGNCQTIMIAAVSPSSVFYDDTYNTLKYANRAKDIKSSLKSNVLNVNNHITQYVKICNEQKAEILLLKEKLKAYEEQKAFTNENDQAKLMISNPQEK
Method in brief: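 Compounds (0-10 µM final, from 10 mM DMSO stock) were incubated 120 min at room temperature with 2.5 nM KIF18A 1-417, 25 µM ATP and 60 µg/mL microtubules. ATPase output was measured as ADP via ADP-Glo luminescence.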

HT29 cells = assay: CyQuant cell proliferation activity test; format: cell-based; conditions: HT29 at 2000 cells per well, 3 days, 0.2% DMSO, XLFIT
Description: Materials and Cells: HT29 cells were purchased from Nanjing Cobioer Biosciences Co., Ltd.; RPMI-1640 medium, fetal bovine serum, Trypsin-EDTA (0.25%), 96-well plates, and CyQuant reagents were purchased from ThermoFisher (USA); DMSO was purchased from SIGMA (USA).
Cell Culture: HT29 cells were cultured with RPMI-1640 containing 10% fetal bovine serum under the condition of 37°C and 5% CO2. Only cells in the logarithmic growth phase could be used for the test.
Cell Proliferation Activity Test: CyQuant reagent was used to detect the proliferation inhibitory activity of compounds on HT29 cells. The cell density was adjusted, and 100 µL per well was inoculated into a 96-well plate (HT29 at 2000 cells per well), then incubated overnight at 37°C and 5% CO2. Add compounds of various target concentrations (initial concentration of 3000 nM, 3-fold dilution, 9 concentration gradients), and make the DMSO content 0.2%. The cell plate was incubated at 37°C in 5% CO2 for 3 days. CyQuant reagent was added and incubated for 1 h. The plates were read by Envision, and IC50 was calculated using XLFIT.

OVCAR3 cells = assay: Cell proliferation activity test (CyQUANT Direct); format: cell-based; conditions: 3 days, 0.2% DMSO, CyQUANT fluorescence
Method in brief: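 OVCAR3 cells in RPMI-1640 with 10% FBS were seeded, then treated overnight later with compound at final 0–10 µM (0.2% DMSO) for 3 days at 37°C, 5% CO2. Proliferation was read as CyQUANT Direct fluorescence after 60 min at 37°C.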

Q: What does the source list for `Cc1cc2nc(n1)N1CCC(F)(F)[C@@H](CCCC3CCN(CC3)c3cc(NS(=O)(=O)CCO)c4c(c3C(=O)N2)CCC4=O)C1` [Example 6, N-((1^3S)-1^4,1^4-difluoro-2^6-methyl-5^1,4-dioxo-5^2,5^3-dihydro-5^1H-3-aza-2(2,4)-pyrimidin-1(1,3),6(1,4)-dipiperidin-5(4,5) -indenoheterocyclononane-5^7-yl)-2-hydroxyethane-1-sulfonamide]?
A: IC50 ([1]; read-out: KIF18A IC50): 73 nM; IC50 (HT29 cells; Homo sapiens, HT-29, 72 h): 41 nM; IC50 (OVCAR3 cells; Homo sapiens, OVCAR-3, 72 h): 41 nM

Q: What does the source list for `Cn1c2nc(cc1=O)NC(=O)c1c(cc(NS(=O)(=O)CCO)c3c1CCC3=O)N1CCC(C/C=C\C3CN2CCC3(F)F)CC1` (stereo not drawn) [Example 9, N-(11,11-difluoro-6-methyl-1,5,22-trioxo-1,5,6,9,10,11,12,15,16,17,18,22,23,24-tetradecahydro-2H-3,7-(azanediyl)-16, 19-ethano-8,12-methyleneindeno[4,5-i] [1,3,7,11]tetraazacyclohenicosan-21-yl)-2-hydroxyethane-1-sulfonamide]?
A: IC50 ([1]; read-out: KIF18A IC50): 264 nM; IC50 (HT29 cells; Homo sapiens, HT-29, 72 h): 1020 nM; IC50 (OVCAR3 cells; Homo sapiens, OVCAR-3, 72 h): 1060 nM

Q: Which IC50 ([1]; read-out: KIF18A IC50) does the source give for `Cc1cc2nc(n1)N1CCC(F)(F)[C@@H](CCCC3CCN(CC3)c3cc(NS(=O)(=O)CCO)c4c(c3C(=O)N2)CCC4=O)C1` [Example 10, N-((1^3S)-1^4,1^4-difluoro-2^6-methyl-5^1,4-dioxo-5^2,5^3-dihydro-5^1H-3-aza-2(2,4)-pyrimidin-1(1,3),6(1,4)-dipiperidin-5(4,5) -indenobicyclononane-5^7-yl)-2-hydroxyethane-1-sulfonamide] here?
A: 43 nM

Q: What about the IC50 (HT29 cells; Homo sapiens, HT-29, 72 h) of the same compound?
A: 39 nM

Q: What about the IC50 (OVCAR3 cells; Homo sapiens, OVCAR-3, 72 h) of the same compound?
A: 36 nM

Q: With `Cc1cc2nc(n1)N1CCC(F)(F)C(/C=C\CC3CCN(CC3)c3cc(NS(=O)(=O)C(C)CO)c4c(c3C(=O)N2)CCC4=O)C1` (stereo not drawn) [Example 11, (Z)-N-(1^4,1^4-difluoro-2^6-methyl-5^1,4-dioxo-5^2,5^3-dihydro-5^1hydro-3-aza-2(2,4)-pyrimidin-1(1,3),6(1,4)-dipiperidin-5(4, 5)-indenocyclonofin-8-en-5^7-yl)-1-hydroxypropane-2-sulfonamide] as the compound, how does the IC50 ([1]; read-out: KIF18A IC50) read?
A: 76 nM

Q: What about the IC50 (HT29 cells; Homo sapiens, HT-29, 72 h) of the same compound?
A: 33 nM

Q: And the IC50 (OVCAR3 cells; Homo sapiens, OVCAR-3, 72 h)?
A: 25 nM

Q: Which results are given for `Cc1cc2nc(n1)N1CCC(F)(F)C(/C=C\CC3CCN(CC3)c3cc(NS(=O)(=O)C(C)(C)CO)c4c(c3C(=O)N2)CCC4=O)C1` (stereo not drawn) [Example 12, (Z)-N-(1^4,1^4-difluoro-2^6-methyl-5^1,4-dioxo-5^2,5^3-dihydro-5^1hydro-3-aza-2(2,4)-pyrimidin-1(1,3),6(1,4)-dipiperidin-5(4, 5)-indenocyclonofin-8-en-5^7-yl)-1-hydroxy-2-methylpropane-2-sulfonamide]?
A: IC50 ([1]; read-out: KIF18A IC50): 172 nM; IC50 (HT29 cells; Homo sapiens, HT-29, 72 h): 165 nM; IC50 (OVCAR3 cells; Homo sapiens, OVCAR-3, 72 h): 96 nM

Q: `Cc1cc2nc(n1)N1CCC(F)(F)C(/C=C\CC3CCN(CC3)c3cc(NS(=O)(=O)CCO)c4c(c3C(=O)N2)CCC4(C)O)C1` (stereo not drawn) [Example 13, (cis)-N-(1^4,1^4-difluoro-5^1-hydroxy-2^6,5^1-dimethyl-4-oxo-5^2,5^3-dihydro-5^1H-3-aza-2(2,4)-pyrimidin-1(1,3),6(1,4)-dipiperidin-5(4,5)-indenocyclononane-8-en-5^7-yl)-2-hydroxyethane-1-sulfonamide] was tested. Which IC50 ([1]; read-out: KIF18A IC50) did it give?
A: 294 nM

Q: What about the IC50 (HT29 cells; Homo sapiens, HT-29, 72 h) of the same compound?
A: 187 nM

Q: And the IC50 (OVCAR3 cells; Homo sapiens, OVCAR-3, 72 h)?
A: 181 nM

Q: How did the IC50 ([1]; read-out: KIF18A IC50) turn out when `Cc1cc2nc(n1)N1CCC(F)(F)C(/C=C/CC3CCN(CC3)c3cc(NS(=O)(=O)CCO)c4c(c3C(=O)N2)OCC4=O)C1` (stereo not drawn) [Example 14A, N-(1^4,1^4-difluoro-2^6-methyl-5^3,4-dioxo-5^2,5-dihydro-3-aza-2(2,4)-pyrimidin-1(1,3),6(1,4)-dipiperidin-5(7,6)-benzofurancyclononane-8-en-5^4-yl)-2-hydroxyethane-1-sulfonamide] was run?
A: 44 nM

Q: What about the IC50 (HT29 cells; Homo sapiens, HT-29, 72 h) of the same compound?
A: 837 nM

Q: And the IC50 (OVCAR3 cells; Homo sapiens, OVCAR-3, 72 h)?
A: 635 nM

Q: For `Cc1cc2nc(n1)N1CCC(F)(F)C(/C=C\CC3CCN(CC3)c3cc(NS(=O)(=O)CCO)c4c(c3C(=O)N2)OCC4=O)C1` (stereo not drawn) [Example 14B, N-(1^4,1^4-difluoro-2^6-methyl-5^3,4-dioxo-5^2,5-dihydro-3-aza-2(2,4)-pyrimidin-1(1,3),6(1,4)-dipiperidin-5(7,6)-benzofurancyclononane-8-en-5^4-yl)-2-hydroxyethane-1-sulfonamide], which IC50 ([1]; read-out: KIF18A IC50) is on record?
A: 307 nM

Q: What about the IC50 (HT29 cells; Homo sapiens, HT-29, 72 h) of the same compound?
A: > 3000 nM

Q: What about the IC50 (OVCAR3 cells; Homo sapiens, OVCAR-3, 72 h) of the same compound?
A: > 3000 nM

Q: Which results are given for `Cc1cc2nc(n1)N1CCC(F)(F)C(/C=C/CC3CCN(CC3)c3cc(NS(=O)(=O)CCO)c4c(c3C(=O)N2)CCC4(F)F)C1` (stereo not drawn) [Example 15, 2-Hydroxy-N-(1^4,1^4,5^1,5^1-tetrafluoro-2^1-methyl4-dioxo-5^2,5^1-dihydro-5^1H-3-aza-2(2,4)-pyrimidin-1(1,3),6(1,4)-dipiperidin-5(4,5)-benzofurancyclononane-8-en-5^7-yl)-ethane-1-sulfonamide]?
A: IC50 ([1]; read-out: KIF18A IC50): 358 nM; IC50 (HT29 cells; Homo sapiens, HT-29, 72 h): 46 nM; IC50 (OVCAR3 cells; Homo sapiens, OVCAR-3, 72 h): 24 nM

Q: Which results are given for `Cc1cc2nc(n1)N1CCC(F)(F)C(C=CCC3CCN(CC3)c3cc(NS(=O)(=O)CCO)c4c(c3C(=O)N2)CNC4=O)C1` (stereo not drawn) [Example 16, N-(6^4,6^4-difluoro-5^6-methyl-2^1,3-dioxo-2^2,2^3-dihydro-2^1H-4-aza-2(5,4)-isoindole-5(4,2)-pyrimidin-1(1,4),6(1,3)-dipiperidineheterocyclonon-7-en-2^7-yl)-2-hydroxyethane-1-sulfonamide]?
A: IC50 ([1]; read-out: KIF18A IC50): 45 nM; IC50 (HT29 cells; read-out: HT-29 IC50): 95 nM; IC50 (OVCAR3 cells): 89 nM

Q: Which IC50 ([1]; read-out: KIF18A IC50) does the source give for `Cc1cc2nc(n1)N1CCC(F)(F)C(/C=C/CC3CCN(CC3)c3cc(NS(=O)(=O)CCO)c4c(c3C(=O)N2)CCNC4=O)C1` (stereo not drawn) [Example 17, N-(6^4,6^4-difluoro-5^6-methyl-2^1,3-dioxo-2^1,2^2,2^3,2^4-tetrahydro-4-aza-2(6,5)-isoquinoline-5(4,2)-pyrimidin-1(1,4),6(1,3)-dipiperidinylcyclononane-7-en-2^8-yl)-2-hydroxyethane-1-sulfonamide] here?
A: 52 nM

Q: And the IC50 (HT29 cells; Homo sapiens, HT-29, 72 h)?
A: 105 nM

Q: And the IC50 (OVCAR3 cells; Homo sapiens, OVCAR-3, 72 h)?
A: 96 nM

Q: Which results are given for `CCS(=O)(=O)Nc1cc2c(c3c1C(=O)CC3)C(=O)Nc1cc(C)nc(n1)N1CCC(F)(F)C(C=CCC3CCN2CC3)C1` (stereo not drawn) [Example 18, N-(1^4,1^4-difluoro-2^6-methyl-5^1,4-dioxo-5^2,5^3-dihydro-5^1H-3-aza-2(2,4)-pyrimidin-1(1,3),6(1,4)-dipiperidin-5(4,5)-indenoheterocyclonon-8-en-5^7-yl)-ethanesulfonamide]?
A: IC50 ([1]; read-out: KIF18A IC50): 67 nM; IC50 (HT29 cells; read-out: HT-29 IC50): 41 nM; IC50 (OVCAR3 cells): 38 nM

Q: `Cc1cc2nc(n1)N1CCC(F)(F)C(C=CCC3CCN(CC3)c3cc(NS(C)(=O)=O)c4c(c3C(=O)N2)CCC4=O)C1` (stereo not drawn) [Example 19, N-(1^4,1^4-difluoro-2^6-methyl-5^1,4-dioxo-5^2,5^3-dihydro-5^1H-3-aza-2(2,4)-pyrimidin-1(1,3),6(1,4)-dipiperidin-5(4,5)-indenoheterocyclonon-8-en-5^7-yl)-methanesulfonamide] was tested. Which IC50 ([1]; read-out: KIF18A IC50) did it give?
A: 73 nM

Q: And the IC50 (HT29 cells; read-out: HT-29 IC50)?
A: 48 nM

Q: What about the IC50 (OVCAR3 cells) of the same compound?
A: 52 nM

Q: Which IC50 ([1]; KIF18A IC50 nM) does the source give for `Cc1cc2nc(n1)N1CCC(F)(F)C(/C=C\Cc3ccc(cc3)-c3cc(NS(=O)(=O)CCO)ccc3C(=O)N2)C1` (stereo not drawn) [Example 42, N-(1^4,1^4-difluoro-2^6-methyl-4-oxo-3-aza-2(2,4)-pyrimidin-1(1,3)-piperidin-5(1,2),6(1,4)-diphenylheterocyclonon-8-en-5^4-yl)-2-hydroxyethane-1-sulfonamide] here?
A: 167 nM

Q: What about the IC50 (HT29 cells; Homo sapiens, HT-29, 72 h) of the same compound?
A: 162 nM

Q: And the IC50 (OVCAR3 cells; Homo sapiens, OVCAR-3, 72 h)?
A: 136 nM

Q: How did the IC50 ([1]; read-out: KIF18A IC50) turn out when `Cc1cc2nc(n1)N1CCC(F)(F)C(CCCc3ccc(cc3)-c3cc(NS(=O)(=O)CCO)ccc3C(=O)N2)C1` (stereo not drawn) [Example 44, N-((1^3S,Z)-1^4,1^4-difluoro-2^6-methyl-3^1H-2(2,4)-pyrimidin-1(1,3),5(1,4)-dipiperidin-3(4,1)-triazole-4(1,2)-benzylcyclooctyl-4^4-yl)-2-hydroxyethane-1-sulfonamide] was run?
A: 83 nM

Q: What about the IC50 (HT29 cells; Homo sapiens, HT-29, 72 h) of the same compound?
A: 39 nM

Q: What about the IC50 (OVCAR3 cells; Homo sapiens, OVCAR-3, 72 h) of the same compound?
A: 27 nM

Q: How did the IC50 ([1]; read-out: KIF18A IC50) turn out when `Cc1cc2nc(n1)N1CCC(F)(F)C(CCc3ccc(cc3)-c3cc(NS(=O)(=O)CCO)ccc3C(=O)N2)C1` (stereo not drawn) [Example 45, N-(2^4,2^4-difluoro-1^6-methyl-7-oxo-8-aza-1(2,4)-pyrimidin-2(1,3)-piperidin-5(1,4),6(1,2)-dibenzylcycloophene-6^5-yl)-2-hydroxyethane-1-sulfonamide] was run?
A: 114 nM

Q: And the IC50 (HT29 cells; Homo sapiens, HT-29, 72 h)?
A: 100 nM

Q: What about the IC50 (OVCAR3 cells; Homo sapiens, OVCAR-3, 72 h) of the same compound?
A: 77 nM
